Test results published in PubChem BioAssay AID248 (DTP/NCI, 2004).
“And” between values parts separate entries of the source, which are not always exact repeats. Equal entries are not always repeated. Toxic doses and inconclusive results are not listed. Cut-off read from the data, not from the text of the source: active = T/C of 150% or more; inactive = T/C below 125%.

Test system: L1210 leukemia ip in BDF1 mice, survival T/C
Experiment: NCI In Vivo Anticancer Drug Screen. Data for tumor model L1210 Leukemia (intraperitoneal) in B6D2F1 (BDF1) mice
Details: endpoint: mean survival time, higher = longer survival
Outline: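 Tumor was transplanted into mice, which were then dosed with test compound or vehicle alone. Survival was recorded for each group, and the treated figure was expressed relative to the control figure.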

Measured: T/C

Nc1nc(=S)c2ncn(C3OC(CO)C(O)C3O)c2[nH]1 (centres undefined)
inactive: dose: 0.09 mg/kg/injection, schedule: Q01DX Z (ip), vehicle: carboxymethylcellulose (CMC) 109 % of control | dose: 0.18 mg/kg/injection, schedule: Q01DX Z (ip), vehicle: carboxymethylcellulose (CMC) 124 % of control | dose: 0.25 mg/kg/injection, schedule: Q01DX015 (ip), vehicle: carboxymethylcellulose (CMC) 111 % of control and 115 % of control | dose: 0.25 mg/kg/injection, schedule: Q01DX015 (ip), vehicle: other 110 % of control | dose: 0.37 mg/kg/injection, schedule: Q01DX Z (ip), vehicle: carboxymethylcellulose (CMC) 121 % of control | dose: 0.4 mg/kg/injection, schedule: Q01DX009 (sc), vehicle: carboxymethylcellulose (CMC) 98 % of control | dose: 0.44 mg/kg/injection, schedule: Q01DX015 (ip), vehicle: carboxymethylcellulose (CMC) 113 % of control | dose: 0.5 mg/kg/injection, schedule: Q01DX015 (ip), vehicle: carboxymethylcellulose (CMC) 123 % of control | dose: 0.5 mg/kg/injection, schedule: Q01DX015 (ip), vehicle: other 123 % of control | dose: 0.62 mg/kg/injection, schedule: Q01DX015 (oral), vehicle: carboxymethylcellulose (CMC) 112 % of control | dose: 0.67 mg/kg/injection, schedule: Q01DX015 (ip), vehicle: carboxymethylcellulose (CMC) 113 % of control | dose: 0.8 mg/kg/injection, schedule: Q01DX009 (oral), vehicle: carboxymethylcellulose (CMC) 105 % of control | dose: 0.8 mg/kg/injection, schedule: Q01DX009 (sc), vehicle: carboxymethylcellulose (CMC) 102 % of control | dose: 1.0 mg/kg/injection, schedule: Q01DX015 (ip), vehicle: other 124 % of control | dose: 1.25 mg/kg/injection, schedule: Q01DX015 (oral), vehicle: carboxymethylcellulose (CMC) 124 % of control | dose: 1.8 mg/kg/injection, schedule: Q## X032 (ip), vehicle: carboxymethylcellulose (CMC) 120 % of control | dose: 2.16 mg/kg/injection, schedule: Q01DX Z (oral), vehicle: carboxymethylcellulose (CMC) 114 % of control | dose: 3.0 mg/kg/injection, schedule: Q01DX009 (ip), vehicle: saline 104 % of control | dose: 4.0 mg/kg/injection, schedule: Q01DX015 (ip), vehicle: carboxymethylcellulose (CMC) 120 % of control | dose: 4.0 mg/kg/injection, schedule: Q01DX Z (ip), vehicle: carboxymethylcellulose (CMC) 108 % of control | dose: 4.2 mg/kg/injection, schedule: Q## X032 (ip), vehicle: carboxymethylcellulose (CMC) 123 % of control | dose: 4.6 mg/kg/injection, schedule: Q01DX009 (ip), vehicle: saline 89 % of control | dose: 6.0 mg/kg/injection, schedule: Q01DX Z (ip), vehicle: carboxymethylcellulose (CMC) 122 % of control | dose: 6.25 mg/kg/injection, schedule: Q01DX009 (ip), vehicle: saline 118 % of control | dose: 7.0 mg/kg/injection, schedule: Q01DX Z (ip), vehicle: carboxymethylcellulose (CMC) 116 % of control | dose: 8.0 mg/kg/injection, schedule: Q01DX Z (ip), vehicle: carboxymethylcellulose (CMC) 110 % of control | dose: 9.0 mg/kg/injection, schedule: Q01DX Z (ip), vehicle: saline 105 % of control and 108 % of control | dose: 10.0 mg/kg/injection, schedule: Q01DX Z (oral), vehicle: carboxymethylcellulose (CMC) 119 % of control | dose: 12.5 mg/kg/injection, schedule: Q01DX009 (ip), vehicle: saline 108 % of control and 123 % of control | dose: 13.0 mg/kg/injection, schedule: Q01DX Z (ip), vehicle: saline 108 % of control | dose: 13.0 mg/kg/injection, schedule: Q02DX008 (ip), vehicle: carboxymethylcellulose (CMC) 119 % of control | dose: 16.0 mg/kg/injection, schedule: Q01DX009 (ip), vehicle: saline 104 % of control | dose: 16.8 mg/kg/injection, schedule: Q01DX Z (oral), vehicle: carboxymethylcellulose (CMC) 108 % of control | dose: 18.8 mg/kg/injection, schedule: Q01DX009 (ip), vehicle: saline 119 % of control | dose: 18.8 mg/kg/injection, schedule: Q01DX Z (ip), vehicle: saline 103 % of control | dose: 20.0 mg/kg/injection, schedule: Q01DX Z (ip), vehicle: saline 109 % of control | dose: 20.0 mg/kg/injection, schedule: Q01DX Z (oral), vehicle: carboxymethylcellulose (CMC) 122 % of control | dose: 25.0 mg/kg/injection, schedule: Q01DX005 (ip), vehicle: saline 94 % of control and 111 % of control and 117 % of control | dose: 25.0 mg/kg/injection, schedule: Q01DX009 (ip), vehicle: saline 100 % of control and 120 % of control and 94 % of control | dose: 30.0 mg/kg/injection, schedule: Q01DX Z (ip), vehicle: saline 93 % of control | dose: 32.0 mg/kg/injection, schedule: Q## X032 (ip), vehicle: carboxymethylcellulose (CMC) 119 % of control | dose: 36.0 mg/kg/injection, schedule: Q## X016 (ip), vehicle: carboxymethylcellulose (CMC) 122 % of control | dose: 37.5 mg/kg/injection, schedule: Q01DX009 (ip), vehicle: saline 108 % of control | dose: 37.5 mg/kg/injection, schedule: Q01DX010 (ip), vehicle: saline 97 % of control | dose: 40.0 mg/kg/injection, schedule: Q01DX Z (oral), vehicle: carboxymethylcellulose (CMC) 101 % of control | dose: 50.0 mg/kg/injection, schedule: Q01DX001 (ip), vehicle: saline 96 % of control | dose: 50.0 mg/kg/injection, schedule: Q01DX005 (ip), vehicle: saline 111 % of control | dose: 75.0 mg/kg/injection, schedule: Q01DX009 (ip), vehicle: saline 96 % of control | dose: 100.0 mg/kg/injection, schedule: Q01DX001 (ip), vehicle: saline 102 % of control | dose: 100.0 mg/kg/injection, schedule: Q01DX009 (ip), vehicle: saline 104 % of control | dose: 180.0 mg/kg/injection, schedule: Q## X002 (ip), vehicle: carboxymethylcellulose (CMC) 109 % of control | dose: 200.0 mg/kg/injection, schedule: Q01DX001 (ip), vehicle: saline 98 % of control | dose: 200.0 mg/kg/injection, schedule: Q01DX005 (ip), vehicle: saline 120 % of control and 106 % of control | dose: 200.0 mg/kg/injection, schedule: Q01DX009 (ip), vehicle: saline 105 % of control | dose: 225.0 mg/kg/injection, schedule: Q## X004 (ip), vehicle: carboxymethylcellulose (CMC) 119 % of control | dose: 270.0 mg/kg/injection, schedule: Q01DX001 (ip), vehicle: carboxymethylcellulose (CMC) 124 % of control | dose: 360.0 mg/kg/injection, schedule: Q01DX001 (sc), vehicle: carboxymethylcellulose (CMC) 95 % of control | dose: 360.0 mg/kg/injection, schedule: Q## X003 (oral), vehicle: carboxymethylcellulose (CMC) 110 % of control | dose: 400.0 mg/kg/injection, schedule: Q01DX001 (ip), vehicle: carboxymethylcellulose (CMC) 103 % of control | dose: 400.0 mg/kg/injection, schedule: Q01DX009 (ip), vehicle: saline 94 % of control | dose: 720.0 mg/kg/injection, schedule: Q01DX001 (oral), vehicle: carboxymethylcellulose (CMC) 109 % of control | dose: 84.0 micrograms/kg/injection, schedule: Q01DX Z (ip), vehicle: saline 121 % of control | dose: 120.0 micrograms/kg/injection, schedule: Q01DX Z (ip), vehicle: saline 115 % of control
active: dose: 0.5 mg/kg/injection, schedule: Q01DX Z (ip), vehicle: carboxymethylcellulose (CMC) 151 % of control | dose: 1.0 mg/kg/injection, schedule: Q01DX Z (ip), vehicle: carboxymethylcellulose (CMC) 157 % of control | dose: 1.56 mg/kg/injection, schedule: Q01DX009 (ip), vehicle: saline 152 % of control and 158 % of control | dose: 2.16 mg/kg/injection, schedule: Q01DX Z (ip), vehicle: carboxymethylcellulose (CMC) 152 % of control | dose: 2.7 mg/kg/injection, schedule: Q02DX008 (ip), vehicle: carboxymethylcellulose (CMC) 152 % of control | dose: 3.0 mg/kg/injection, schedule: Q01DX Z (ip), vehicle: carboxymethylcellulose (CMC) 152 % of control | dose: 4.0 mg/kg/injection, schedule: Q02DX008 (ip), vehicle: carboxymethylcellulose (CMC) 153 % of control | dose: 5.5 mg/kg/injection, schedule: Q## X003 (ip), vehicle: carboxymethylcellulose (CMC) 156 % of control | dose: 5.8 mg/kg/injection, schedule: Q02DX008 (ip), vehicle: carboxymethylcellulose (CMC) 156 % of control | dose: 6.0 mg/kg/injection, schedule: Q01DX Z (oral), vehicle: carboxymethylcellulose (CMC) 150 % of control | dose: 6.4 mg/kg/injection, schedule: Q## X032 (ip), vehicle: carboxymethylcellulose (CMC) 154 % of control | dose: 8.8 mg/kg/injection, schedule: Q02DX008 (ip), vehicle: carboxymethylcellulose (CMC) 150 % of control | dose: 10.0 mg/kg/injection, schedule: Q## X004 (ip), vehicle: carboxymethylcellulose (CMC) 158 % of control | dose: 14.0 mg/kg/injection, schedule: Q## X032 (ip), vehicle: carboxymethylcellulose (CMC) 155 % of control | dose: 22.0 mg/kg/injection, schedule: Q## X032 (ip), vehicle: carboxymethylcellulose (CMC) 155 % of control | dose: 22.5 mg/kg/injection, schedule: Q01DX001 (oral), vehicle: carboxymethylcellulose (CMC) 154 % of control | dose: 45.0 mg/kg/injection, schedule: Q01DX001 (ip), vehicle: carboxymethylcellulose (CMC) 155 % of control | dose: 45.0 mg/kg/injection, schedule: Q02DX008 (ip), vehicle: carboxymethylcellulose (CMC) 157 % of control | dose: 67.0 mg/kg/injection, schedule: Q## X004 (ip), vehicle: carboxymethylcellulose (CMC) 151 % of control | dose: 90.0 mg/kg/injection, schedule: Q01DX001 (sc), vehicle: carboxymethylcellulose (CMC) 156 % of control | dose: 100.0 mg/kg/injection, schedule: Q01DX001 (ip), vehicle: carboxymethylcellulose (CMC) 155 % of control | dose: 144.0 mg/kg/injection, schedule: Q01DX001 (ip), vehicle: carboxymethylcellulose (CMC) 158 % of control | dose: 150.0 mg/kg/injection, schedule: Q01DX001 (ip), vehicle: carboxymethylcellulose (CMC) 157 % of control | dose: 180.0 mg/kg/injection, schedule: Q01DX001 (ip), vehicle: carboxymethylcellulose (CMC) 154 % of control | dose: 225.0 mg/kg/injection, schedule: Q01DX001 (ip), vehicle: carboxymethylcellulose (CMC) 150 % of control | dose: 290.0 micrograms/kg/injection, schedule: Q01DX Z (ip), vehicle: saline 151 % of control
